Assay results from US9232796B2, “Herbicidal compositions comprising 4-amino-3-chloro-5-fluoro-6-(4-chloro-2-fluoro-3-methoxyphenyl) pyridine-2-carboxylic acid or a derivative thereof and acetyl-CoA carboxylase (ACCase) inhibitors” (DOW AGROSCIENCES LLC, priority 2012, dated 2016).

Columns and labels:
CYPES = assay: Example I postemergence foliar-applied, greenhouse, direct seeded rice weeds; format: in vivo, Cyperus esculentus L.
Description: (§1) Seeds or nutlets of the desired test plant species were planted in a soil matrix prepared by mixing a loam or sandy loam soil (e.g., 28.6 percent silt, 18.8 percent clay, and 52.6 percent sand, with a pH of about 5.8 and an organic matter content of about 1.8 percent) and calcareous grit in an 80 to 20 ratio. The soil matrix was contained in plastic pots with a volume of 1 quart and a surface area of 83.6 square centimeters (cm^2). When required to ensure good germination and healthy plants, a fungicide treatment and/or other chemical or physical treatment was applied. The plants were grown for 8-22 days in a greenhouse with an approximate 14 hr. photoperiod which was maintained at about 29° C. during the day and 26° C. during the night. Nutrients (Peters Excel® 15-5-15 5-Ca 2-Mg and iron chelate) were applied in the irrigation solution as needed and water was added on a regular basis. Supplemental lighting was provided with overhead metal halide 1000-Watt lamps as necessary. The plants were employed for testing when they reached the first through fourth true leaf stage.
(§2) Treatments consisted of the acid or esters of 4-amino-3-chloro-5-fluoro-6-(4-chloro-2-fluoro-3-methoxy-phenyl)pyridine-2-carboxylic acid (Compound A), each formulated as an SC (suspension concentrate), and various herbicidal components alone and in combination.
(§3) Other herbicidal components were applied on an acid equivalent (ae) or active ingredient (ai) basis and included acetyl coA carboxylase (ACCase)-inhibiting herbicides (cyclohexanedione and aryloxyphenoxypropionate chemical classes) cyhalofop-butyl formulated as Clincher® SF (285 gr ai/L EC), diclofop-methyl formulated as Hoelon® 3EC, fenoxaprop-p-ethyl+isoxadifen-ethyl formulated as RiceStar® HT (0.58 lb./gal EC), fenoxaprop-p-ethyl+mefenpyr diethyl formulated as Puma® IEC, metamifop formulated as Metamifop EC, haloxyfop-methyl formulated as Gallant Super®, fluazifop-p-butyl formulated as Fusilade® DX, quizalofop-p-ethyl formulated as Assure® II, profoxydim formulated as Aura® 20EC, clethodim applied as Intensity®, sethoxydim formulated as Poast®, and tralkoxydim formulated as Achieve®.
(§4) Treatment requirements were calculated based upon the rates being tested, the concentration of active ingredient or acid equivalent in the formulation, and a 12 mL application volume at a rate of 187 L/ha.
(§5) For treatments comprised of formulated compounds, measured amounts of compounds were placed individually in 25 mL glass vials and diluted in a volume of 1.25% (v/v) Agri-Dex® crop oil concentrated to obtain 12× stock solutions. […] Application solutions were prepared by adding an appropriate amount of each stock solution (e.g., 1 mL) and diluted to the appropriate final concentrations with the addition of 10 mL of an aqueous mixture of 1.25% (v/v) crop oil concentrate so that the final spray solutions contained 1.25+/−0.05% (v/v) crop oil concentrate.
(§6) All stock solutions and applications solutions were visually inspected for compound compatibility prior to application. Spray solutions were applied to the plant material with an overhead Mandel track sprayer equipped with a 8002E nozzles calibrated to deliver 187 L/ha over an application area of 0.503 m^2 at a spray height of 18 to 20 inches (46 to 50 cm) above average plant canopy height. Control plants were sprayed in the same manner with the solvent blank.
(§7) The treated plants and control plants were placed in a greenhouse as described above and watered by sub-irrigation to prevent wash-off of the test compounds. After approximately 3 weeks, the condition of the test plants as compared with that of the untreated plants was determined visually and scored on a scale of 0 to 100 percent where 0 corresponds to no injury or growth inhibition and 100 corresponds to complete kill. […]

CYPDI = assay: as above; format: in vivo, Cyperus difformis L.
Description: as §1, §2, §3, §4, §5
All stock solutions and applications solutions were visually inspected for compound compatibility prior to application. […]
as §7

FIMMI = assay: Example II in-water applied, greenhouse, transplanted paddy rice weeds; format: in vivo, Fimbristylis miliacea (L.) Vahl
Experimental: (§8) Weed seeds or nutlets of the desired test plant species were planted in puddled soil (mud) prepared by mixing a shredded, non-sterilized mineral soil (50.5 percent silt, 25.5 percent clay, and 24 percent sand, with a pH of about 7.6 and an organic matter content of about 2.9 percent) and water at a 1:1 volumetric ratio. The prepared mud was dispensed in 365 mL aliquots into 16-ounce (oz.) non-perforated plastic pots with a surface area of 86.59 square centimeters (cm^2) leaving a headspace of 3 centimeters (cm) in each pot. Mud was allowed to dry overnight prior to planting or transplanting. Rice seeds were planted in Sun Gro MetroMix® 306 planting mixture, which typically has a pH of 6.0 to 6.8 and an organic matter content of about 30 percent, in plastic plug trays. Seedlings at the second or third leaf stage of growth were transplanted into 860 mL of mud contained in 32-oz. non-perforated plastic pots with a surface area of 86.59 cm^2 4 days prior to herbicide application. The paddy was created by filling the headspace of the pots with 2.5 to 3 cm of water. […] The plants were grown for 4-22 days in a greenhouse with an approximate 14 hr. photoperiod which was maintained at about 29° C. during the day and 26° C. during the night. Nutrients were added as Osmocote® (19:6:12, N:P:K+minor nutrients) at 2 g per 16-oz. pot and 4 g per 32-oz. pot. Water was added on a regular basis to maintain the paddy flood, and supplemental lighting was provided with overhead metal halide 1000-Watt lamps as necessary. The plants were employed for testing when they reached the first through fourth true leaf stage.
(§9) Treatments consisted of the acid or esters of 4-amino-3-chloro-5-fluoro-6-(4-chloro-2-fluoro-3-methoxy-phenyl)pyridine-2-carboxylic acid (compound A) each formulated as an SC (suspension concentrate) and various herbicidal components alone and in combination.
(§10) For formulated compounds, a measured amount was placed in an individual 100 or 200 mL glass vial and was dissolved in a volume of 1.25% (v/v) Agri-Dex® crop oil concentrate to obtain application solutions.
(§11) Applications were made by injecting with a pipetter appropriate amounts of the application solutions, individually and sequentially, into the aqueous layer of the paddy. Control plants were treated in the same manner with the solvent blank. Applications were made so that all treated plant material received the same concentrations of acetone and crop oil concentrate.
(§12) The treated plants and control plants were placed in a greenhouse as described above and water was added as needed to maintain a paddy flood. After approximately 3 weeks the condition of the test plants as compared with that of the untreated plants was determined visually and scored on a scale of 0 to 100 percent where 0 corresponds to no injury or growth inhibition and 100 corresponds to complete kill.
(§13) Colby's equation was used to determine the herbicidal effects expected from the mixtures (Colby, S. R. 1967. Calculation of the synergistic and antagonistic response of herbicide combinations. Weeds 15:20-22.).
(§14) The following equation was used to calculate the expected activity of mixtures containing two active ingredients, A and B: Expected=A+B−(A×B/100)

CYPIR = assay: Example I postemergence foliar-applied, greenhouse, direct seeded rice weeds; format: in vivo, Cyperus iria L.
Description: as §1, §2, §3, §4, §5, §6, §7

ECHCG [1] = assay: Example II in-water applied, greenhouse, transplanted paddy rice weeds; format: in vivo, Echinochloa crusgalli (L.) Beauv.; conditions: 135 gai/ha
Experimental: as §11, §12, §13, §14

ECHCG [2] = assay: Example I postemergence foliar-applied, greenhouse, direct seeded rice weeds; format: in vivo, Echinochloa crusgalli (L.) Beauv.
Description: as §1, §2, §3, §4, §5, §6, §7

SCPJU [3] = assay: as above; format: in vivo, Schoenoplectus juncoides (Roxb.) Palla
Description: as §1, §2, §3, §4, §5, §6, §7

LEFCH = assay: as above; format: in vivo, Leptochloa chinensis (L.) Nees; conditions: 112 gai/ha
Description: as §1, §2, §3, §4, §5, §6, §7

SCPJU [4] = assay: Example II in-water applied, greenhouse, transplanted paddy rice weeds; format: in vivo, Schoenoplectus juncoides (Roxb.) Palla; conditions: in-water, 135 gai/ha
Experimental: as §8, §9, §10, §11, §12, §13, §14

## CCC/C(=N\OCC)C1=C(O)CC(CC(C)SCC)CC1=O (stereo not shown) [Sethoxydim, 2-[1-(ethoxyimino)butyl]-5-[2-(ethylthio)propyl]-3-hydroxy-2-cyclohexen-1-one]
CYPES; 67.5 gai/ha
  Visual Weed Control (%) - 22 DAA CYPES Obs: 0%
CYPES; 135 gai/ha
  Visual Weed Control (%) - 22 DAA CYPES Obs: 0%
CYPES; 270 gai/ha
  Visual Weed Control (%) - 22 DAA CYPES Obs: 0%
CYPDI; 67.5 gai/ha
  Visual Weed Control (%) - 22 DAA CYPDI Obs: 0%
CYPDI; 135 gai/ha
  Visual Weed Control (%) - 22 DAA CYPDI Obs: 0%
CYPDI; 270 gai/ha
  Visual Weed Control (%) - 22 DAA CYPDI Obs: 0%
FIMMI; 135 gai/ha
  Visual Weed Control (%) - 21 DAA FIMMI Obs: 50%
FIMMI; 270 gai/ha
  Visual Weed Control (%) - 21 DAA FIMMI Obs: 30%
CYPIR; 67.5 gai/ha
  Visual Weed Control (%) - 22 DAA CYPIR Obs: 0%
CYPIR; 135 gai/ha
  Visual Weed Control (%) - 22 DAA CYPIR Obs: 0%
CYPIR; 270 gai/ha
  Visual Weed Control (%) - 22 DAA CYPIR Obs: 0%
ECHCG [1]
  Visual Weed Control (%) - 21 DAA ECHCG Obs: 60%
ECHCG [2]; 56 gai/ha
  Visual Weed Control (%) - 22 DAA ECHCG Obs: 30%
ECHCG [2]; 112 gai/ha
  Visual Weed Control (%) - 22 DAA ECHCG Obs: 90%
SCPJU [3]; 67.5 gai/ha
  Visual Weed Control (%) - 22 DAA SCPJU Obs: 0%
SCPJU [3]; 135 gai/ha
  Visual Weed Control (%) - 22 DAA SCPJU Obs: 0%
SCPJU [3]; 270 gai/ha
  Visual Weed Control (%) - 22 DAA SCPJU Obs: 0%
LEFCH
  Visual Weed Control (%) - 22 DAA LEFCH Obs: 70%
SCPJU [4]
  Visual Weed Control (%) - 21 DAA SCPJU Obs: 0%
